# Test results reported in publication PMC9763021, “Comprehensive Assessment of Biomolecular Interactions of Morpholine-Based Mixed Ligand Cu(II) and Zn(II) Complexes of 2,2′-Bipyridine as Potential Anticancer and SARS-CoV-2 Agents: A Synergistic Experimental and Structure-Based Virtual Screening” (Bioinorganic Chemistry and Applications, 2022).
# How the values were obtained:
# [1] = Nitric oxide scavenging assay; type: biochemical; settings: for % Inhibition nitric oxide: 546 nm
# Procedure: (§1) All samples were evaluated for their scavenging ability with the help of UV-visible spectrophotometer at different concentrations of 40, 80, 120, 160, 200, and 240 μM [6, 28]. While performing the antioxidant properties for the DPPH, hydroxyl, superoxide, and nitric oxide radical scavenging, the absorbance at 517, 230, 590, and 546 nm, respectively, was closely observed. In addition, the observed IC50 values of all samples were compared with ascorbic acid.
# The diffusible nitric oxide free radical is a crucial chemical mediator, which assists in overcoming diverse chronological human diseases. The NO free radical scavenging potential for all test samples was also carried out at 546 nm. It monitored the alterations in electronic absorption intensity of the nitric oxide radical inhibition outcome concerning the sample concentrations. When the test sample concentration rises, the nitric oxide free inhibition effectiveness also increases. The measured % of nitric oxide radical scavenging capability for all samples at 240 μM was obtained in the subsequent order (ascorbic acid) 72.73 > (1a) 65.47 > (2a) 58.43 > (HL) 51.62.
# [2] = DPPH radical scavenging assay; type: biochemical; settings: for % Inhibition DPPH: 517 nm
# Procedure: as §1
# The colour of an aqueous or methanol solution changes from deep purple to pale yellow when DPPH, a stable chromogen free radical, combines with an antioxidant molecule, which means that DPPH quickly absorbs the hydrogen or electrons from the donor groups. In this case, for the baseline correction, a blank DPPH solution in the absence of a test compound was employed, and 517 nm (ε = 8320 M^−1·cm^−1) was attained to have a significant absorption maximum. […] The DPPH radicals are reduced by an antioxidant compound (AH), in which the reduction of electronic absorbance for each compound was vigilantly noted at 517 nm. The capacity to block radicals improves as the sample concentration increases. The assessed percentage of maximum inhibition for all substances was found at 240 μM in the subsequent order: (ascorbic acid) (85.65) > (1a) 68.64 > (2a) 59.55 > (HL) 52.45. […] Moreover, the % of scavenging or maximum inhibition for all substances is estimated with the aid of equation (44) (Table S14).(43) Scavanging%=A0−AS/A0×100
# [3] = Hydroxyl radical scavenging assay; type: biochemical; settings: for % Inhibition hydroxyl radical: 230 nm
# Procedure: as §1
# Hydrogen peroxide receives electrons from antioxidant molecules and then neutralizes them into a water molecule. ^●OH inhibition capability was determined from the % of inhibition for all test substances at 230 nm.
# [4] = Superoxide scavenging assay; type: biochemical; settings: for % Inhibition superoxide: 590 nm
# Procedure: as §1
# A vital enzyme catalyst in the body's defence against free radicals, superoxide dismutase (SOD) quickly and efficiently reduces toxicity and cellular damage by exchanging superoxide with water (or) harmless molecules. The % of inhibition for all substances was analyzed at 590 nm. The outcomes were obtained in the subsequent order: (ascorbic acid) 84.85 > (1a) 67.17 > (2a) 58.18 > (HL) 50.42.
# [5] = test system: calf thymus deoxyribonucleic acid; assay: DNA binding by viscometric (hydrodynamic) technique
# Procedure: The titrations were performed for all compounds including EB (control) at 20, 40, 60, 80, and 100 μM concentrations. In the Ostwald viscometer, these substances were also separately treated with the calf thymus deoxyribonucleic acid solution (100 μM).
# Hydrodynamic findings can be utilized to assess the alteration of DNA length and afford details on the binding tendency between small molecules and biomolecules. As a result of their sensitivity to DNA contour length changes, which implies that the average distance between each monomer (cl = 0.338 nm/bp for B-form DNA), the DNA binding properties of all test compounds were further validated by this method. According to the Lerman concept, interactions between small molecules and deoxyribonucleic acid via covalent and noncovalent bindings are often possible. When a chemical substance interacts with the deoxyribonucleic acid double helix, the contour length of DNA increases via intercalation and leads to an increase in the absolute viscosity. Meanwhile, if DNA viscosity is not affected during interactions, which leads to the responsible for the major/minor groove binding due to H-bond/Van der Waals interactions, electrostatic, partial, or nonclassical interaction modes. Therefore, analyzing the binding modes provides additional support for the findings as well as a crucial aspect of the conventional intercalation concept. In this case, it was observed that the absolute viscosity increased consistently along with the concentration of each substance at the fixed DNA concentration. The DNA must extend to facilitate the binding of ligands, which causes a considerable rise in DNA viscosity while small molecules intercalate into the DNA helix. According to equation (12), an increase in relative viscosity denotes an intercalation-induced lengthening of the deoxyribonucleic acid base pair. While adhering to the principle of excluding the nearest neighbors, intercalation entails inserting a planar molecule into a DNA base pair without rupturing the hydrogen bonds that hold the base pairs together. This causes a diminution in the DNA helical twist and an extension of the DNA. Moreover, a molecule can be presumed to bind to deoxyribonucleic acid by intercalation between base pairs if it causes lengthening and unwinding of the deoxyribonucleic acid base pairs. In this case, the relative viscosity of DNA gradually increases, while the […]. Moreover, the affinity interactions and their slope values were observed from the relative specific viscosity (η⁄η0)^1/3 plotted straight line contrasting [Compound]/[DNA], and absolute specific viscosity of deoxyribonucleic acid in the absence or presence of samples was evaluated using equation (12) (Table 3). […] The evaluated slope findings were in the subsequent sequence: (EB) 1.215 > (1a) 0.915 > (2a) 0.630 > (HL) 0.490 (Figure S21 and Table 3). […] Due to the existence of the 2,2′-bipyridine and morpholine-fused aromatic planar systems, compounds can interact with deoxyribonucleic acid robustly via intercalation. The outcomes were excellent in accordance with the observed outcomes of absorption spectral properties.(11) η/η0^1/3=tcomplex−t0/t0/tDNA−t0/t0, where η and η0 are represented as specific viscosity of DNA in the presence complex and specific viscosity of DNA alone, and t0, tDNA, and tcomplex are represented as the average flow time of the Tris-HCl buffer solution, the average flow time of DNA alone solution, and the average flow time of DNA interacted with the samples, respectively. Error limit is ±2.5% (P < 0.025).
compound,measurement,setting,value
"O=C1O[C@H]([C@@H](O)CO)C(O)=C1O [Ascorbic acid, reference compound]",IC50,[1],160 µM
same,% Inhibition nitric oxide,[1]; 40 µM,28.55%
same,% Inhibition nitric oxide,[1]; 80 µM,35.75%
same,% Inhibition nitric oxide,[1]; 120 µM,43.65%
same,% Inhibition nitric oxide,[1]; 160 µM,52.68%
same,% Inhibition nitric oxide,[1]; 200 µM,63.72%
same,% Inhibition nitric oxide,[1]; 240 µM,72.73%
same,IC50,[2],80 µM
same,% Inhibition DPPH,[2]; 40 µM,41.63%
same,% Inhibition DPPH,[2]; 80 µM,53.74%
same,% Inhibition DPPH,[2]; 120 µM,58.95%
same,% Inhibition DPPH,[2]; 160 µM,70.86%
same,% Inhibition DPPH,[2]; 200 µM,82.75%
same,% Inhibition DPPH,[2]; 240 µM,85.65%
same,IC50,[3],160 µM
same,% Inhibition hydroxyl radical,[3]; 40 µM,20.73%
same,% Inhibition hydroxyl radical,[3]; 80 µM,36.46%
same,% Inhibition hydroxyl radical,[3]; 120 µM,47.87%
same,% Inhibition hydroxyl radical,[3]; 160 µM,59.65%
same,% Inhibition hydroxyl radical,[3]; 200 µM,65.64%
same,% Inhibition hydroxyl radical,[3]; 240 µM,78.83%
same,IC50,[4],120 µM
same,% Inhibition superoxide,[4]; 40 µM,29.64%
same,% Inhibition superoxide,[4]; 80 µM,41.72%
same,% Inhibition superoxide,[4]; 120 µM,55.63%
same,% Inhibition superoxide,[4]; 160 µM,66.75%
same,% Inhibition superoxide,[4]; 200 µM,72.55%
same,% Inhibition superoxide,[4]; 240 µM,84.85%
"CC[n+]1c(-c2ccccc2)c2cc(N)ccc2c2ccc(N)cc21 [EB (control), Ethidium bromide, reference compound]",Slope of (η/η0)^1/3 vs [Compound]/[DNA],[5],1.215
same,Relative specific viscosity (η/η0)^1/3,[5]; [complex]/[DNA] = 0.2,1.01
same,Relative specific viscosity (η/η0)^1/3,[5]; [complex]/[DNA] = 0.4,1.35
same,Relative specific viscosity (η/η0)^1/3,[5]; [complex]/[DNA] = 0.6,1.63
same,Relative specific viscosity (η/η0)^1/3,[5]; [complex]/[DNA] = 0.8,1.82
same,Relative specific viscosity (η/η0)^1/3,[5]; [complex]/[DNA] = 1.0,1.99
